pIC50: −log10 of the molar value.
Key:
HL-60(TB) [1] = experiment: Antiproliferative activity against human HL-60(TB) cells assessed as cell growth inhibition at 10 uM measured after 48 hrs by SRB assay relative to control; assay type: functional
OVCAR-4 [2] = experiment: Antiproliferative activity against human OVCAR-4 cells assessed as cell growth inhibition at 10 uM measured after 48 hrs by SRB assay relative to control; assay type: functional
MDA-MB-468 [3] = experiment: Antiproliferative activity against human MDA-MB-468 cells assessed as cell growth inhibition at 10 uM measured after 48 hrs by SRB assay relative to control; assay type: functional
SK-MEL-5 [4] = experiment: Antiproliferative activity against human SK-MEL-5 cells assessed as cell growth inhibition at 10 uM measured after 48 hrs by SRB assay relative to control; assay type: functional
NCI-H322M = experiment: Antiproliferative activity against human NCI-H322M cells assessed as cell growth inhibition measured after 48 hrs by SRB assay; assay type: functional, cell-based
SK-MEL-5 [5] = experiment: Antiproliferative activity against human SK-MEL-5 cells assessed as cell growth inhibition measured after 48 hrs by SRB assay; assay type: functional, cell-based; conditions: SK-MEL-5, 48 h
[6] = target: Fibroblast growth factor receptor 1 (Homo sapiens) (UniProt P11362); experiment: Inhibition of FGFR1 (unknown origin) at 10 uM incubated for 40 mins in presence of Mg/ATP mix by [gamma p33]-ATP based scintillation counting method relative to control
Sequence of Fibroblast growth factor receptor 1 (Homo sapiens) (P11362 22-822 limits assumed): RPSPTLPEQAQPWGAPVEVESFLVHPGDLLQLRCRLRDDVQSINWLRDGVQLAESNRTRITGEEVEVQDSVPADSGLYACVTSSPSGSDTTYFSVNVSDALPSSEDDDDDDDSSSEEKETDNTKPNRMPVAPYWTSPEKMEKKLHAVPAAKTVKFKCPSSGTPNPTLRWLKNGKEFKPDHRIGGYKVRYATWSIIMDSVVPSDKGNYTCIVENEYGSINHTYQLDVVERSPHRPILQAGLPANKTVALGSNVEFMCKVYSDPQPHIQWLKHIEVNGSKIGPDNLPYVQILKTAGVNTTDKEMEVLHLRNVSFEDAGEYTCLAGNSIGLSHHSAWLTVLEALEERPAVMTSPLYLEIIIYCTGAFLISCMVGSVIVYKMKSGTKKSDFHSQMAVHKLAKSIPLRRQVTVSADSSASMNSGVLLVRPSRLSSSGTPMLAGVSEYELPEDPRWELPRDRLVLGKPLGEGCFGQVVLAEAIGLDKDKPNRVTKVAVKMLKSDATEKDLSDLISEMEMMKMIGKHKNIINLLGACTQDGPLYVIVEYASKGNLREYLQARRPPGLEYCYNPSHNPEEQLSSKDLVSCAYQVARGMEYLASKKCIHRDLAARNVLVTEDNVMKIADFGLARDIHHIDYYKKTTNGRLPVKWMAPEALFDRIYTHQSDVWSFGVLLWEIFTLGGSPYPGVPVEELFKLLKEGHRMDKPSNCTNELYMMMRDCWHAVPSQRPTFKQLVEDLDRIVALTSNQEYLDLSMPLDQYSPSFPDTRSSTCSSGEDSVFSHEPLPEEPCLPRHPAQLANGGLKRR

[7] = target: T1, Serine/threonine-protein kinase B-raf (Homo sapiens, UniProt P15056); experiment: Inhibition of wild type B-RAF (unknown origin) at 10 uM incubated for 40 mins in presence of Mg/ATP mix by [gamma p33]-ATP based scintillation counting method relative to control
T1 sequence (P15056 whole entry): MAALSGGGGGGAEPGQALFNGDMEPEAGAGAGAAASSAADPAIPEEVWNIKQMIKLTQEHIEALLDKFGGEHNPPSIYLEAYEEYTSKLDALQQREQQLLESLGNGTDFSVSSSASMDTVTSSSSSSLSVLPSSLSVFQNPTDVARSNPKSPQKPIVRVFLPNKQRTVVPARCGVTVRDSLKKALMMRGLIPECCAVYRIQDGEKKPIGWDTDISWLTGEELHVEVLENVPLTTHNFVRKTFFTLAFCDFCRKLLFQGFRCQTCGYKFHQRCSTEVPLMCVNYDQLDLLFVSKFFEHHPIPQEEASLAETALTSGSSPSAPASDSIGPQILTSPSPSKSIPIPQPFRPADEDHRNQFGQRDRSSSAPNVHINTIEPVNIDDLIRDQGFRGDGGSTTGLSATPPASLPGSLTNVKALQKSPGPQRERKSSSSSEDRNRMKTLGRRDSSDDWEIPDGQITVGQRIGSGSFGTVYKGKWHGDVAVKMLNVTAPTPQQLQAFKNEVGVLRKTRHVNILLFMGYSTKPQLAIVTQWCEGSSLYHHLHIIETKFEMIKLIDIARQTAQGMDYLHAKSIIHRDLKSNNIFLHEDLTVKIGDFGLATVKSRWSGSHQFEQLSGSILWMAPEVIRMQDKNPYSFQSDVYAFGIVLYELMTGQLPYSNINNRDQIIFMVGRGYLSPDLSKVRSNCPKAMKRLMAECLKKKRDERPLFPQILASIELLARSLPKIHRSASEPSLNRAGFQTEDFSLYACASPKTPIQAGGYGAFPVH

OVCAR-4 [8] = experiment: Antiproliferative activity against human OVCAR-4 cells assessed as cell growth inhibition measured after 48 hrs by SRB assay; assay type: functional, cell-based; conditions: OVCAR-4, 48 h
MDA-MB-468 [9] = experiment: Antiproliferative activity against human MDA-MB-468 cells assessed as cell growth inhibition measured after 48 hrs by SRB assay; assay type: functional, cell-based; conditions: MDA-MB-468, 48 h
[10] = target: Epidermal growth factor receptor (Homo sapiens, UniProt P00533); experiment: Inhibition of EGFR (unknown origin) at 10 uM incubated for 40 mins in presence of Mg/ATP mix by [gamma p33]-ATP based scintillation counting method relative to control
[11] = test system: Panel NCI-60 (60 carcinoma cell lines); experiment: Growth inhibition of human panel NCI-60 (60 carcinoma cells) assessed as growth percent at 10 uM measured after 48 hrs by SRB assay relative to control; assay type: functional; conditions: read-out: Activity
[12] = target: T2, Vascular endothelial growth factor receptor 2 (Homo sapiens, UniProt P35968); experiment: Inhibition of KDR (unknown origin) at 10 uM incubated for 40 mins in presence of Mg/ATP mix by [gamma p33]-ATP based scintillation counting method relative to control
T2 sequence (P35968 whole entry): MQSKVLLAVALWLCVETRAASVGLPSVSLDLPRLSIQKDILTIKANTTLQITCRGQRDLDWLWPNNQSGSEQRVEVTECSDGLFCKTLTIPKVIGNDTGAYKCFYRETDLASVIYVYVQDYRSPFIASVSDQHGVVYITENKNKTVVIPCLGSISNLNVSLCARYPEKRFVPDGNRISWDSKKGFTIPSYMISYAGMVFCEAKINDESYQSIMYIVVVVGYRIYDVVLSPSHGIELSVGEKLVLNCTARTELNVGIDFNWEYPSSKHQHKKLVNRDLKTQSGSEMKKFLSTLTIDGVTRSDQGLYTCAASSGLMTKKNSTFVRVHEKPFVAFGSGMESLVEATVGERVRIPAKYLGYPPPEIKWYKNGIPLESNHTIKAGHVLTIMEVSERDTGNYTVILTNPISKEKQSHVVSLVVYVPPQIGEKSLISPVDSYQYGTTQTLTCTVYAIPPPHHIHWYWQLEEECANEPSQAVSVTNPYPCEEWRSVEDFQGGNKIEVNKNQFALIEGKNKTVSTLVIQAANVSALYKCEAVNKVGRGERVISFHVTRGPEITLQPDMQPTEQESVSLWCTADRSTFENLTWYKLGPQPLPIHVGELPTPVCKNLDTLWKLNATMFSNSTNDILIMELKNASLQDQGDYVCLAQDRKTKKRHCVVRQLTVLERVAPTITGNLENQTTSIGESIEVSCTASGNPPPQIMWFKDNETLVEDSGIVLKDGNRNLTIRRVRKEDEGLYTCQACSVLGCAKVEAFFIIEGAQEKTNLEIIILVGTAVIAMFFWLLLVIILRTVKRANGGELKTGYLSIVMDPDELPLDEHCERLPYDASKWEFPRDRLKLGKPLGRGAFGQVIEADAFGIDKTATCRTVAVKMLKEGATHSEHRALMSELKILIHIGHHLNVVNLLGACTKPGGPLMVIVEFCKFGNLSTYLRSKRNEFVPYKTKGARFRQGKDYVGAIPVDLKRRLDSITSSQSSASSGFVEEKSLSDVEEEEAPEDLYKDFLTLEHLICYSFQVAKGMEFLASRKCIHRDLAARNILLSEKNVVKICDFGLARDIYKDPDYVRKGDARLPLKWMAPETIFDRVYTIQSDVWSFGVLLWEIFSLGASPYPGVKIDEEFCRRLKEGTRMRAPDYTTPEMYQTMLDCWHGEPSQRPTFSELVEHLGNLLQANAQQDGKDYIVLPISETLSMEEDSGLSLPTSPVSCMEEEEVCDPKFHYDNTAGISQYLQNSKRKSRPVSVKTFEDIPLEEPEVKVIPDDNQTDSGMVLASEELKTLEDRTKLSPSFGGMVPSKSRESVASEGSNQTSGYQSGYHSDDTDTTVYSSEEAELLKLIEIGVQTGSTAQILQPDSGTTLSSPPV

DU-145 [13] = experiment: Antiproliferative activity against human DU-145 cells assessed as cell growth inhibition measured after 48 hrs by SRB assay; assay type: functional, cell-based; conditions: DU-145, 48 h
DU-145 [14] = experiment: Antiproliferative activity against human DU-145 cells assessed as cell growth inhibition at 10 uM measured after 48 hrs by SRB assay relative to control; assay type: functional
SNB-75 [15] = experiment: Antiproliferative activity against human SNB-75 cells assessed as cell growth inhibition at 10 uM measured after 48 hrs by SRB assay relative to control; assay type: functional
UO-31 [16] = experiment: Antiproliferative activity against human UO-31 cells assessed as cell growth inhibition at 10 uM measured after 48 hrs by SRB assay relative to control; assay type: functional
[17] = Cytotoxicity against human WI-38 cells assessed as cell growth inhibition at 10 uM measured after 48 hrs by SRB assay relative to control; assay type: cell-based
[18] = test system: Serine/threonine-protein kinase B-raf (Homo sapiens), P15056 [V600E]; experiment: Inhibition of BRAF V600E mutant (unknown origin) at 10 uM incubated for 40 mins in presence of Mg/ATP mix by [gamma p33]-ATP based scintillation counting method relative to control
Sequence of Serine/threonine-protein kinase B-raf (Homo sapiens), P15056 [V600E] (P15056 whole entry V600E): as the sequence (P15056 whole entry) above, with V600E counted along it

[19] = target: T3, RAF proto-oncogene serine/threonine-protein kinase (Homo sapiens, UniProt P04049); experiment: Inhibition of RAF1 (unknown origin) at 10 uM incubated for 40 mins in presence of Mg/ATP mix by [gamma p33]-ATP based scintillation counting method relative to control
T3 sequence (P04049 whole entry): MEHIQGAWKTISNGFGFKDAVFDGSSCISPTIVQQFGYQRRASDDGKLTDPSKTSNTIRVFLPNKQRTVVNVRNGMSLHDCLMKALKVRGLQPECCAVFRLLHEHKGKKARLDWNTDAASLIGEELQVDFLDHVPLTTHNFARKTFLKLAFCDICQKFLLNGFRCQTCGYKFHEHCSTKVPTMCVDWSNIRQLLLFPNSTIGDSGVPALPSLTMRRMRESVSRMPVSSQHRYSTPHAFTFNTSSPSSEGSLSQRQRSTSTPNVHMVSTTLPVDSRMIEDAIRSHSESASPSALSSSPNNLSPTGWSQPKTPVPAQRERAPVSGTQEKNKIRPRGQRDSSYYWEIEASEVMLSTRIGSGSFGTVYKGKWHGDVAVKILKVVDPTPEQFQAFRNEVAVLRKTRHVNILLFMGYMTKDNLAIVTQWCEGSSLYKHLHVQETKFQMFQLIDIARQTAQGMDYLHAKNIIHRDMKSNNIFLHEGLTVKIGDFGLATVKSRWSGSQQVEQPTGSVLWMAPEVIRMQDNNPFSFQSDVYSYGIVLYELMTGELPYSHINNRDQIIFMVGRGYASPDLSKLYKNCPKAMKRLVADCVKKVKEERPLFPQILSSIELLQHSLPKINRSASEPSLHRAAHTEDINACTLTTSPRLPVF

[20] = target: Receptor tyrosine-protein kinase erbB-2 (Homo sapiens) (UniProt P04626); experiment: Inhibition of ErbB2 (unknown origin) at 10 uM incubated for 40 mins in presence of Mg/ATP mix by [gamma p33]-ATP based scintillation counting method relative to control
UO-31 [21] = experiment: Antiproliferative activity against human UO-31 cells assessed as cell growth inhibition measured after 48 hrs by SRB assay; assay type: functional, cell-based; conditions: UO-31, 48 h
WI-38 = experiment: Cytotoxicity against human WI-38 cells assessed as cell growth inhibition measured after 48 hrs by SRB assay; assay type: cell-based; conditions: WI-38, 48 h
SNB-75 [22] = experiment: Antiproliferative activity against human SNB-75 cells assessed as cell growth inhibition measured after 48 hrs by SRB assay; assay type: functional, cell-based; conditions: SNB-75, 48 h
HL-60(TB) [23] = experiment: Antiproliferative activity against human HL-60(TB) cells assessed as cell growth inhibition measured after 48 hrs by SRB assay; assay type: functional, cell-based; conditions: HL-60, 48 h
[24] = target: Proto-oncogene tyrosine-protein kinase Src (Homo sapiens) (UniProt P12931); experiment: Inhibition of C-SRC (unknown origin) at 10 uM incubated for 40 mins in presence of Mg/ATP mix by [gamma p33]-ATP based scintillation counting method relative to control
[25] = target: T4, Receptor tyrosine-protein kinase erbB-4 (Homo sapiens, UniProt Q15303); experiment: Inhibition of ErbB4 (unknown origin) at 10 uM incubated for 40 mins in presence of Mg/ATP mix by [gamma p33]-ATP based scintillation counting method relative to control
T4 sequence (Q15303 whole entry): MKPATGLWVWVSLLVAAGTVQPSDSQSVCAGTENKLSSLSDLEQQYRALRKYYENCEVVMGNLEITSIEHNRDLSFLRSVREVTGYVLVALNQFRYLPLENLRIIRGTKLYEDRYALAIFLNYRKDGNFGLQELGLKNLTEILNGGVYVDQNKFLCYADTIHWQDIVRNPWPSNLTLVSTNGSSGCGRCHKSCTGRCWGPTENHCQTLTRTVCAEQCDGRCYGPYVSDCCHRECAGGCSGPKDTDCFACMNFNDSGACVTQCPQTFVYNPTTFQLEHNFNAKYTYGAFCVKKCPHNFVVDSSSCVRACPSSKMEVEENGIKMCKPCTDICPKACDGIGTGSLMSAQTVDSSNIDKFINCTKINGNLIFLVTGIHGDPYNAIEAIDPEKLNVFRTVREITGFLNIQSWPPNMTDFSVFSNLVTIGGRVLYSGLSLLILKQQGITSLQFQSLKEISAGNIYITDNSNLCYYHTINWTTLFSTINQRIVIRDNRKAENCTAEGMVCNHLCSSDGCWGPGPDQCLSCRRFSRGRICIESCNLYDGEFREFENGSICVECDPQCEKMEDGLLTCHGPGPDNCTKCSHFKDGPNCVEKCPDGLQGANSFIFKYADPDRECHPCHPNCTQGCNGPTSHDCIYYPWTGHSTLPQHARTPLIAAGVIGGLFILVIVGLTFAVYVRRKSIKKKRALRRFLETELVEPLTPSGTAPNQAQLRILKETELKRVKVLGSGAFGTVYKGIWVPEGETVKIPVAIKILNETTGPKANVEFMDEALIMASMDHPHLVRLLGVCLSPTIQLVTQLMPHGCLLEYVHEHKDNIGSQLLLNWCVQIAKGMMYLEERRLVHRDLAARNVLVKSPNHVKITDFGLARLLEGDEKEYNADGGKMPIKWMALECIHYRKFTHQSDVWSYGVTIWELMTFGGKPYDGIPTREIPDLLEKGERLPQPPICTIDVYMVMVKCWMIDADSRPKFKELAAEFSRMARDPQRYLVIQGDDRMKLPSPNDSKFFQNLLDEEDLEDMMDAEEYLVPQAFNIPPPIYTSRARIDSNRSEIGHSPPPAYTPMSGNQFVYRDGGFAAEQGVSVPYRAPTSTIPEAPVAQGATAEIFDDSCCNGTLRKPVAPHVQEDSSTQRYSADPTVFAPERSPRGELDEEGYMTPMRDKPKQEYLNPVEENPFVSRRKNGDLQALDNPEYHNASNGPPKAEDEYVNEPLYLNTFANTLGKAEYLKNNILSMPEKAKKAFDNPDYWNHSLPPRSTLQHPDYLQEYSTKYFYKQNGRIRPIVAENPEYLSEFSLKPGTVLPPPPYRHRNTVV

NCI-H522 = experiment: Antiproliferative activity against human NCI-H522 cells assessed as cell growth inhibition measured after 48 hrs by SRB assay; assay type: functional, cell-based; conditions: NCI-H522, 48 h
MOLT-4 = experiment: Antiproliferative activity against human MOLT-4 cells assessed as cell growth inhibition measured after 48 hrs by SRB assay; assay type: functional, cell-based; conditions: MOLT-4, 48 h
HCC 2998 = experiment: Antiproliferative activity against human HCC 2998 cells assessed as cell growth inhibition measured after 48 hrs by SRB assay; assay type: functional, cell-based; conditions: HCC 2998, 48 h
U-251 = experiment: Antiproliferative activity against human U-251 cells assessed as cell growth inhibition measured after 48 hrs by SRB assay; assay type: functional, cell-based; conditions: U-251, 48 h
[26] = target: Epidermal growth factor receptor (Homo sapiens, UniProt P00533, T790M); experiment: Inhibition of EGFR- T790M mutant (unknown origin) incubated for 40 mins in presence of Mg/ATP mix by [gamma p33]-ATP based scintillation counting method
[27] = target: Epidermal growth factor receptor (Homo sapiens, UniProt P00533, L861Q); experiment: Inhibition of EGFR- L861Q mutant (unknown origin) incubated for 40 mins in presence of Mg/ATP mix by [gamma p33]-ATP based scintillation counting method
Cytochrome P450 2D6 = Cytochrome P450 2D6 (Homo sapiens, UniProt P10635); experiment: Inhibition of CYP2D6 (unknown origin) using EOMCC as a substrate incubated for 20 mins by fluorescence based analysis; assay type: ADME
[28] = target: Dual specificity mitogen-activated protein kinase kinase 2 (Homo sapiens, UniProt P36507); experiment: Inhibition of MEK2 (unknown origin) incubated for 40 mins in presence of Mg/ATP mix by [gamma p33]-ATP based scintillation counting method
[29] = target: Voltage-gated inwardly rectifying potassium channel KCNH2 (Homo sapiens, UniProt Q12809); experiment: Inhibition of human ERG incubated for 3 hrs by competitive fluorescence tracer binding based assay
[30] = target: Epidermal growth factor receptor (Homo sapiens, UniProt P00533, L858R/T790M); experiment: Inhibition of EGFR T790M/L858R mutant (unknown origin) incubated for 40 mins in presence of Mg/ATP mix by [gamma p33]-ATP based scintillation counting method
Cytochrome P450 3A4 = Cytochrome P450 3A4 (Homo sapiens, UniProt P08684); experiment: Inhibition of CYP3A4 (unknown origin) using BOMCC as a substrate incubated for 20 mins by fluorescence based analysis; assay type: ADME
[31] = target: Receptor-type tyrosine-protein kinase FLT3 (Homo sapiens, UniProt P36888); experiment: Inhibition of FLT-3(unknown origin) incubated for 40 mins in presence of Mg/ATP mix by [gamma p33]-ATP based scintillation counting method
[32] = target: Serine/threonine-protein kinase A-Raf (Homo sapiens, UniProt P10398); experiment: Inhibition of A-RAF (unknown origin) incubated for 40 mins in presence of Mg/ATP mix by [gamma p33]-ATP based scintillation counting method
hERG (KCNH2) = hERG (KCNH2) (Homo sapiens, UniProt Q12809); experiment: Safety index, ratio of test compound IC50 to E-4031 IC50 for inhibition of human ERG incubated for 3 hrs by competitive fluorescence tracer binding based assay; conditions: read-out: Ratio IC50
CYP3A4 = CYP3A4 (Homo sapiens, UniProt P08684); experiment: Potency index, ratio of test compound IC50 to ketoconazole IC50 for inhibition of CYP3A4 (unknown origin) using BOMCC as a substrate incubated for 20 mins by fluorescence based analysis; assay type: ADME; conditions: probe BOMCC
[33] = target: T2, Vascular endothelial growth factor receptor 2; experiment: Inhibition of KDR (unknown origin) incubated for 40 mins in presence of Mg/ATP mix by [gamma p33]-ATP based scintillation counting method
[34] = target: T3, RAF proto-oncogene serine/threonine-protein kinase; experiment: Inhibition of RAF1 (unknown origin) incubated for 40 mins in presence of Mg/ATP mix by [gamma p33]-ATP based scintillation counting method
[35] = target: T1, Serine/threonine-protein kinase B-raf; experiment: Inhibition of wild type B-RAF (unknown origin) incubated for 40 mins in presence of Mg/ATP mix by [gamma p33]-ATP based scintillation counting method
Homo sapiens = species: Homo sapiens; experiment: Selectivity ratio of IC50 for inhibition of EFGR-T790M mutant (unknown origin) to IC50 for ErbB4 (unknown origin); conditions: time 40.0 min
[36] = target: T4, Receptor tyrosine-protein kinase erbB-4; experiment: Inhibition of ErbB4 (unknown origin) incubated for 40 mins in presence of Mg/ATP mix by [gamma p33]-ATP based scintillation counting method
[37] = target: Serine/threonine-protein kinase B-raf (Homo sapiens, UniProt P15056, V600E); experiment: Inhibition of BRAF V600E mutant (unknown origin) incubated for 40 mins in presence of Mg/ATP mix by [gamma p33]-ATP based scintillation counting method

## CS(=O)(=O)c1nccc(-c2c(-c3cccc(OCc4ccc(F)cc4)c3)nc3sccn23)n1
HL-60(TB) [1]
  inhibition at 10 µM: 56.3%
OVCAR-4 [2]
  inhibition at 10 µM: 34.9%
MDA-MB-468 [3]
  inhibition at 10 µM: 164%
SK-MEL-5 [4]
  inhibition at 10 µM: 94.6%
NCI-H322M
  pIC50: 5.74
SK-MEL-5 [5]
  pIC50: 5.81
[6]
  inhibition: -0.04%
[7]
  inhibition: 9.62%
OVCAR-4 [8]
  pIC50: 5.40
MDA-MB-468 [9]
  pIC50: 5.74
[10]
  inhibition: -5.54%
[11]
  growth at 10 µM: 60.6%
[12]
  inhibition: 24.8%
DU-145 [13]
  pIC50: 5.72
DU-145 [14]
  inhibition at 10 µM: 154%
SNB-75 [15]
  inhibition at 10 µM: 4.08%
UO-31 [16]
  inhibition at 10 µM: 124%
[17]
  inhibition at 48 h, 10 µM: 21.6%
[18]
  inhibition: 33.6%
[19]
  inhibition: 10.8%
[20]
  inhibition: -2.99%
UO-31 [21]
  pIC50: 5.77
WI-38
  pIC50: 4.90
SNB-75 [22]
  pIC50: 4.81
HL-60(TB) [23]
  pIC50: 5.47
[24]
  inhibition: 2.46%
[25]
  inhibition: 60.2%

## CNC(=O)c1cc(Oc2ccc(NC(=O)Nc3ccc(Cl)c(C(F)(F)F)c3)cc2)ccn1 [SORAFENIB]
SK-MEL-5 [5]
  pIC50: 5.60
NCI-H522
  pIC50: 5.30

## C=CC(=O)N1CCC[C@@H](n2nc(-c3ccc(Oc4ccccc4)cc3)c3c(N)ncnc32)C1 [IBRUTINIB]
MOLT-4
  pIC50: 5.40
NCI-H322M
  pIC50: 7.00
SK-MEL-5 [5]
  pIC50: 5.20
HCC 2998
  pIC50: 4.80
U-251
  pIC50: 5.20
OVCAR-4 [8]
  pIC50: 5.10
MDA-MB-468 [9]
  pIC50: 7.52
NCI-H522
  pIC50: 7.22
DU-145 [13]
  pIC50: 5.70
UO-31 [21]
  pIC50: 5.90
SNB-75 [22]
  pIC50: 5.50
HL-60(TB) [23]
  pIC50: 4.70

## c1ccc(COc2cccc(-c3nc4sccn4c3-c3ccncn3)c2)cc1
[26]
  pIC50: 6.42
[27]
  pIC50: 5.36
Cytochrome P450 2D6
  pIC50: < 4.05
[28]
  pIC50: 5.49
[11]
  growth at 10 µM: 78.4%
[29]
  pIC50: 4.89
[30]
  pIC50: 5.07
Cytochrome P450 3A4
  pIC50: 4.68
[31]
  pIC50: 5.87
[32]
  pIC50: 5.15
hERG (KCNH2)
  selectivity ratio at 3 h: 530
CYP3A4
  selectivity ratio at 20 min: 8790
[33]
  pIC50: 6.15
[34]
  pIC50: 5.69
[35]
  pIC50: 6.00
Homo sapiens
  Selectivity Index: 21.5
[36]
  pIC50: 7.75
[25]
  inhibition: > 60%
[37]
  pIC50: 5.80

## CS(=O)(=O)c1nccc(-c2c(-c3ccc(OCCN4CCOCC4)cc3)nc3sccn23)n1
[11]
  growth at 10 µM: 101%
